One assay has as its system GBM 090909 cells. In words: MTT growth inhibition, primary GBM-derived neurosphere culture GBM 090909. It is filed as cell-based. As to conditions: Homo sapiens, Table 3, 48-96 h treatment, read-out: GI50 in vitro values, glioma GBM 090909. Here is the method:
(§1) Cell culture media were supplemented with 4 mM glutamine (Lonza code BE17-605E), 100 μg/mL gentamicin (Lonza code 17-5182), and penicillin-streptomycin (200 units/ml and 200 μg/ml) (Lonza code 17-602E). Primary GBM-derived neurosphere cultures from a patient undergoing surgical debulking were established using previously described methods. Briefly, resected tumor tissue was minced with a sterile scalpel and dissociated in 3 mL of neurobasal (NB) media containing 100 U/mL of collagenase (Life Technologies™) for 30 minutes at 37° C. Dissociated tissue was then vortexed and filtered using a sterile 70 um nylon Falcon™ cell strainer (Corning™). […]
(§2) Compound 4l was evaluated for in vitro growth inhibition against a panel of cancer cell lines, including U373, U251, U87, T98G, human GBM, and A549 NSCLC. […] Compound 4l was also evaluated for in vitro growth inhibition against the apoptosis-sensitive tumor model Hs683 anaplastic oligodendroglioma as a reference.

The subject of a further assay is GBM 031810 cells. In words: MTT growth inhibition, primary GBM-derived neurosphere culture GBM 031810. The format is cell-based. As to conditions: Homo sapiens, Table 3, 48-96 h treatment, read-out: GI50 in vitro values, glioma GBM 031810. Here is the method: as §1, §2
The next assay deals with H1993 cells. In words: Combination treatment with paclitaxel, CellTiter-Glo viability, Bliss Independence. The format is cell-based, human. As to conditions: 96 h, FIG. 2. Here is the method: Spirodienone 4l was evaluated against patient-derived NSCLC cell line H1993 and its drug-resistant variant, H2073. The patient-derived NSCLC cell line […] was obtained from a regrown tumor at a primary site after a patient relapsed several months later.
Paclitaxel (Teva™) was dissolved in polyethoxylated castor oil. Compound 4l was dissolved in DMSO. The compound was diluted to different concentrations in medium. Appropriate numbers of cells (4×10^3 cells per well for H1993, 7×10^3 cells per well for H2073) were seeded into 96-well plates. […] After 96 h, viability of cells was assessed using the CellTiter-Glo® Luminescent Cell Viability Assay (Promega™), according to the manufacturer's instructions. Predicted additivity was calculated based on Bliss Independence, as defined by Exy=Ex+Ey−ExEy, where Exy is the additive effect of drugs x and y as predicted by the individual effects Ex and Ey.
FIG. 2 and FIG. 3 illustrate the synergism against H1993 cells.

As a reminder, the GI50 is the concentration at which growth is held to half of that of the control.

The structures appear in SMILES notation.

As to `O=C1C=CC2(C=C1)CCN(C(=O)C(F)(F)F)Cc1c2sc2ccccc12` [Compound 4l], the figures for the GI50 with GBM 090909 cells and with GBM 031810 cells were 7 µM and 8 µM, respectively. In the assay on H1993 cells, the “synergism with paclitaxel in antiproliferative action” value was “synergize with paclitaxel”.

The values above are taken from patent US10414778B2, “Methods for treatment of resistant cancer” (New Mexico Tech University Research Park Corporation, priority 2016, dated 2019).
